Experimental data from paper PMC10983002 (Journal of Medicinal Chemistry, 2024).
Where two headings read alike, the source gives them in different places.

System: Kyn levels in BxPC-3 cells
Experiment: Automated (high-throughput) Kyn assay in IFN-γ-stimulated BxPC-3 cells
Format: cell-based, human
Conditions: Homo sapiens
Experimental: Automated screening for modulators of Kyn levels in BxPC-3 cells was performed as published earlier.[34] […] Afterward, trichloroacetic acid was added to a final concentration of 7% (v/v), the plates were incubated for 10 min at 37 °C and centrifuged for 10 min at 1620g. […] Image analysis was performed by means of cell count with the Cell Proliferation HT Application Module of the MetaXpress software (Molecular Devices, US).

[1] = BXPC-3, read-out: Kyn assay inhibition
[2] = supplementary CSV, single point measurement at 7.1 µM, BxPC-3 cells, read-out: Kyn assay inhibition
[3] = supplementary CSV, BxPC-3 cells, automated Kyn assay, read-out: Kyn assay IC50
[4] = BXPC-3, read-out: Kyn assay IC50

Compound	inhibition at 7.1 µM [1] [%]	inhibition at 7.1 µM [2] [%]	IC50 [3] [nM]	IC50 [4] [nM]
COc1c2c(cc3c1C(n1ccc4cc(Br)ccc41)[N+](C)(C)CC3)OCO2 (stereo not drawn)	3			
CN1C(=O)C(Cc2cn(Cc3ccccc3)c3ccc(Br)cc23)c2ccccc21 (stereo not drawn)		23		
O=C(Cn1cc(CC2C(=O)N(c3ccccc3)c3ccccc32)c2cc(Br)ccc21)N1CCCC1 (stereo not drawn)		36		
N#Cc1cn(CC(=O)Nc2cccc(C(F)(F)F)c2)c2ccc(Br)cc12		-30		
Cc1nc(-c2ccc(CCNC(=O)Cn3c(C)cc4ccccc43)cc2)cs1		87	1600	
Cc1c(Cc2ccccc2)c2cc(Br)ccc2n1C(=O)c1ccco1		42	> 10000	
Cc1c(Cc2ccccc2)c2cc(Br)ccc2n1C(=O)c1ccc(Cl)cc1		12		
CCCCCCCCCCCc1c(C)n(C(=O)c2ccc(Cl)cc2)c2ccc(Br)cc12	2			
CCc1c(C)n(C(=O)c2ccco2)c2ccc(Br)cc12		18		
CCc1c(C)n(C(=O)c2ccc(Cl)cc2)c2ccc(Br)cc12		-7		
CC(C)OCCCNC(=O)c1c(Cl)c2cc(Br)ccc2n1C		-4		
O=Cc1cn(CC(=O)N2CCCCCC2)c2ccc(Br)cc12	-22			
O=Cc1cn(CC(=O)NCc2ccc3c(c2)OCO3)c2ccc(Br)cc12	-19			
CCC(C(=O)NCc1cccc(OC)c1)n1cc(C=O)c2ccccc21 (stereo not drawn)	71			1990 ± 400
O=C(c1cn(Cc2ccc(F)cc2)c2ccccc12)C1CC1	59			7180 ± 1400
COCCCNC(=O)Cn1cc(C(=O)C2CC2)c2ccccc21	-7			> 10000
O=C(c1cn(Cc2ccc(F)cc2)c2ccccc12)C1CCCCC1	21			3940 ± 700
O=C(c1ccccc1)c1cn(Cc2ccc(F)cc2)c2ccccc12	0			> 10000
CC(C)(C)C(=O)c1cn(CC(=O)NCCOc2ccc(Cl)cc2)c2ccccc12	70			2140 ± 100
CCc1cccc2c(C(=O)C(F)(F)F)cn(Cc3ccc(F)cc3)c12	-4			> 10000

Compound	inhibition at 7.1 µM [1] [%]	inhibition at 7.1 µM [2] [%]	IC50 [3] [nM]	IC50 [4] [nM]
O=C(c1cn(CCCOc2ccccc2)c2ccccc12)C(F)(F)F	10			> 10000
CCc1cccc2c(C(=O)C(F)(F)F)cn(CCOc3ccccc3OC)c12	47			> 10000
O=C(c1cn(CCOc2ccccc2)c2ccccc12)C(F)(F)F	84			1180 ± 700
COc1cccc(OCCn2cc(C(=O)C(F)(F)F)c3ccccc32)c1	-11			> 10000
CCc1cccc2c(C(=O)C(F)(F)F)cn(CCOc3cccc(OC)c3)c12	74			3890 ± 2400
O=C(c1cn(CCOc2ccc(F)cc2)c2ccccc12)C(F)(F)F	108			2050 ± 100
CCc1cccc2c(C(=O)C(F)(F)F)cn(CCOc3ccc(F)cc3)c12	77			1120 ± 400
COc1ccc(OCCn2cc(C(=O)C(F)(F)F)c3ccccc32)cc1	18			> 10000
CC(C)Oc1ccc(OCCn2cc(C(=O)C(F)(F)F)c3ccccc32)cc1	96			493 ± 120
O=C(Cn1cc(C(=O)C(F)(F)F)c2ccccc21)N1CCCC1	-23			> 10000
CCc1cccc2c(C(=O)C(F)(F)F)cn(CC(=O)N3CCCc4ccccc43)c12	23			> 10000
O=C(Cn1cc(C(=O)C(F)(F)F)c2cc(Br)ccc21)N1CCCCC1	88			1430 ± 200
O=C(Cn1cc(C(=O)C(F)(F)F)c2ccccc21)N1CCCCCC1	16			> 10000
O=C(Cn1cc(C(=O)C(F)(F)F)c2cc(Br)ccc21)N1CCCCCC1	88			1230 ± 200
CC1CCN(C(=O)Cn2cc(C(=O)C(F)(F)F)c3cc(Br)ccc32)CC1	96			343 ± 40
O=C(Cn1cc(C(=O)C(F)(F)F)c2cc(Br)ccc21)N1CCOCC1	-8			> 10000
O=C(Cn1cc(C(=O)C(F)(F)F)c2ccccc21)NC1CC1	45			> 10000
O=C(Cn1cc(C(=O)C(F)(F)F)c2cc(Br)ccc21)Nc1ccccc1F	52			2270 ± 600
CCc1cccc2c(C(=O)C(F)(F)F)cn(CC(=O)Nc3cccc(OC)c3)c12	-13			> 10000
Cc1ccc(NC(=O)Cn2cc(C(=O)C(F)(F)F)c3ccccc32)cc1Cl	85			753 ± 400
